Results from US20210346378A1, “METHOD TO PREVENT AND TREAT ALOPECIA BY CALCIUM CHANNEL BLOCKERS, ANGIOTENSIN CONVERTING ENZYME INHIBITORS, AND ANGIOTENSIN RECEPTOR BLOCKERS” (priority 2019, published 2021).
Like-named read-outs stand apart in the source and are kept apart here.

Key:
[1] = system: alopecia; assay: composition directly applied to the scalp on one side of the head, other side left untreated; format: in vivo, human
Description: (§1) patient one is diagnosed with alopecia. A composition comprising the calcium channel blocker nifedipine is directly applied to the scalp on one side of the head while the other side is left untreated. […] patient one is diagnosed with alopecia. A composition comprising the ACE inhibitor enalapril is directly applied to the scalp on one side of the head while the other side is left untreated. […] patient one is diagnosed with alopecia. A composition comprising the angiotensin receptor blocker losartan is directly applied to the scalp on one side of the head while the other side is left untreated. […] patient two is diagnosed with alopecia. A composition comprising the calcium channel blocker nifedipine is directly applied to the scalp on one side of the head while the other side is left untreated. […] patient two is diagnosed with alopecia. A composition comprising the ACE inhibitor enalapril is directly applied to the scalp on one side of the head while the other side is left untreated. […] patient two is diagnosed with alopecia. A composition comprising the angiotensin receptor blocker losartan is directly applied to the scalp on one side of the head while the other side is left untreated.

[2] = system: alopecia; assay: composition directly injected into the scalp on one side of the head, other side left untreated; format: in vivo, human
Description: as §1, with “injected into” for “applied to”, “the” for “the other”

[3] = system: female pattern hair loss; conditions: women, facial hair growth during treatment; cited from earlier work
[4] = system: androgenic alopecia; conditions: cited from earlier work

SMILES	symptoms of alopecia, treated side versus untreated side ([1]; patient one)	symptoms of alopecia, treated side versus untreated side ([1]; patient two)	symptoms of alopecia, treated side versus untreated side ([2]; patient one)	symptoms of alopecia, treated side versus untreated side ([2]; patient two)	time for facial hair growth side effect to resolve [3]	hair count higher than baseline as compared to placebo ([4]; after 4 years) [%]	hair count higher than baseline as compared to placebo ([4]; after one year of treatment) [%]
CCOC(=O)[C@H](CCc1ccccc1)N[C@@H](C)C(=O)N1CCC[C@H]1C(=O)O [enalapril]	reduced symptoms of alopecia	reduced symptoms of alopecia	reduced symptoms of alopecia	reduced symptoms of alopecia			
Nc1cc(N2CCCCC2)nc(N)[n+]1[O-] [Minoxidil]					at least 4 months		
CC(C)(C)NC(=O)[C@H]1CC[C@H]2[C@@H]3CC[C@H]4NC(=O)C=C[C@]4(C)[C@H]3CC[C@]12C [Finasteride]						24.3	9.42
CCCCc1nc(Cl)c(CO)n1Cc1ccc(-c2ccccc2-c2nn[nH]n2)cc1 [losartan]	reduced symptoms of alopecia	reduced symptoms of alopecia	reduced symptoms of alopecia	reduced symptoms of alopecia			
